Data set [1] relates to in vitro BBB model (CD34+-derived ECs co-cultured with bovine brain pericytes on Transwell inserts). It counts as in vitro ADME, human. As for the experimental part:
Reference is made to FIG. 2A that schematically illustrates an in vitro BBB model 100 grown in Transwell inserts 200 (3401-Costar, Corning, USA). The in vitro human BBB model was generated as follows: CD34^+-derived ECs 250 were seeded onto matrigel-coated (BD Biosciences, USA) apical side 206 of a Transwell insert membrane 204. Primary bovine brain pericytes 252 were seeded on the gelatin-coated basolateral side 208 of the same Transwell inserts 2-24 h before the seeding of the ECs. […]
PEFs were applied to Transwell inserts 200 using an electroporator power supply (BTX 830; Harvard Apparatus, Holliston, MA). […] Given the parameters of the electrode and based on a finite elements model of the described system, the EF generated between the electrodes by the applied voltage can be approximated as uniform across the ECs monolayer and can be calculated by dividing the Voltage by the electrodes distance. […]
50 μl of a solution containing 0.5 mg/ml NaF in PBS was added to the luminal (apical) side of each Transwell insert 200 one minute prior to PEFs application. […] A sample of medium 102 collected from under basolateral side 208 was collected and the samples' fluorescence was measured using TECAN pro200 plate reader (485/538 nm excitation/emission). […]

A further data set deals with CNS-1 glioma cell line. As to the kind of experiment: efficacy of Paclitaxel across the in vitro BBB model after PEF application (glioma confluency). The conditions noted are these: 200 nM Paclitaxel on apical side, 2 h with insert, followed 3 days. The class given is cell-based. The protocol:
Reference is made to FIG. 5A. To study the effect of PEFs application on BBB permeability for Paclitaxel (Taxol®), the in vitro BBB model 100 as shown FIG. 2A was modified by seeding a CNS-1 glioma cell line 254 on a bottom surface 103 of cell culture well 101 (40,000 cells per well), into which the BLEC co-culture system grown on membrane 204 of Transwell insert 200 was also grown. When the glioma cell line was at about 16±0.5% confluency, 200 nM Paclitaxel was added into ECM media 102 in the apical side of Transwell insert 200 and PEFs were applied at one of various settings, then incubated for 2 hours after which time the Transwell insert was removed. […] Glioma cell line 254 was then further incubated for three days and the level of confluency was measured at 2 hours, 1 day, 2 days, and 3 days following Paclitaxel administration.
The results as shown by way of example in FIG. 5B indicate that low pulse-count, low frequency, low EF strength PEFs induce sufficient BBB disruption to allow a therapeutic dose of Paclitaxel to traverse the in vitro BBB model and reach the glioma cell line.

Consider two compounds from US11931569B2, “Method for changing blood brain barrier permeability” (TEL HASHOMER MEDICAL RESEARCH, INFRASTRUCTURE AND SERVICES …, priority 2018, dated 2024).

With `O=C([O-])c1ccccc1-c1c2ccc(=O)cc-2oc2cc([O-])ccc12.[Na+].[Na+]` [NaF, sodium fluorescein], the increase in permeability in data set [1] was 40±9%.
As to `CC(=O)O[C@H]1C(=O)[C@@]2(C)[C@H]([C@H](OC(=O)c3ccccc3)[C@]3(O)C[C@H](OC(=O)[C@H](O)[C@@H](NC(=O)c4ccccc4)c4ccccc4)C(C)=C1C3(C)C)[C@]1(OC(C)=O)CO[C@@H]1C[C@@H]2O` [Paclitaxel], the “glioma cell growth / confluency” value was “substantially disrupt its growth” in the data set on CNS-1 glioma cell line (10 pulses, 74 V/cm, 1 Hz); “glioma growth was not significantly retarded” in the data set with CNS-1 glioma cell line (20 pulses, 30 V/cm, 1 Hz); “level of retardation of glioma growth was equivalent to application of 10 pulses of PEFs at a field strength of 74 V/cm” in the data set on CNS-1 glioma cell line (99 pulses, 30 V/cm, 1 Hz); “reach full confluency after 3 days” in the data set with CNS-1 glioma cell line (control, no PEF application).
